The values that follow come from patent publication US20080051382A1, “Crystalline Forms of 3-Beta-Amino 17-Methylene Androstane-6-Alpha 7-Beta-Diol Hydrochloride” (INFLAZYME PHARMACEUTICALS LTD., priority 2003, published 2008).

Molecules are shown by their SMILES. Counter-ions that a name gives are not always drawn.

Holding throughout (type): physicochemical
Series [1] can be described thus: Hygroscopicity of the solid form.
A short description of series [2]: Stability of the crystalline form versus relative humidity.
Series [3] can be described thus: Thermal stability of the crystalline form on heating.

In the case of `C=C1CC[C@H]2[C@@H]3[C@@H](O)[C@H](O)C4C[C@@H](N)CC[C@]4(C)[C@H]3CC[C@]12C` (stereo partly drawn) [acetate salt, 3-beta-amino-17-methylene-androstane-6-alpha,7-beta-diol, reference compound], the hygroscopicity result in series [1] is “hygroscopic”. Take `C=C1CCC2C3C(CC[C@]12C)[C@@]1(C)CC[C@H](N)CC1[C@@H](O)[C@@H]3O.Cl` (stereo partly drawn) [form A, 3-beta-amino-17-methylene-androstane-6-alpha,7-beta-diol hydrochloride]: the hygroscopicity entry in series [1] is given as “absence of hygroscopicity”. Besides, in series [2] (left for 3 days under a relative humidity above 95%), the “form conversion under high relative humidity” value is on record as “converts to form B”. In addition, in series [3], the “temperature above which the form decomposes completely” value is “above 280 °C” and the “temperature at which the form begins to deteriorate chemically” value is “around 240 °C”. Take `C=C1CCC2C3C(CC[C@]12C)[C@@]1(C)CC[C@H](N)CC1[C@@H](O)[C@@H]3O.Cl` (stereo partly drawn) [form B, 3-beta-amino-17-methylene-androstane-6-alpha,7-beta-diol hydrochloride]: in series [2] (crystalline powder, hydrochloride), the “relative humidity range in which the crystalline form is stable” value was “above 50 % RH”. With `C=C1CCC2C3C(CC[C@]12C)[C@@]1(C)CC[C@H](N)CC1[C@@H](O)[C@@H]3O.Cl` (stereo partly drawn) [form C, 3-beta-amino-17-methylene-androstane-6-alpha,7-beta-diol hydrochloride], in series [3] (conversion of mono-hydrate to anhydrous form D), the “temperature above which the form turns into anhydride D by heating” value was “above 60 °C”.
